Source: PMC9781827, “Isolation and Identification of Anti-Inflammatory Peptide from Goose Blood Hydrolysate to Ameliorate LPS-Mediated Inflammation and Oxidative Stress in RAW264.7 Macrophages” (Molecules, 2022)

Experiments:
Type in all cases: cell-based
[1] = tested on: iNOS; test: Western blot of iNOS in RAW264.7 macrophages; settings: LPS group vs CTRL group, p < 0.05
Description: (§1) RAW264.7 macrophages were washed with cold PBS and homogenized with two small magnetic beads (2 mm) and 10× volume of RIPA buffer containing 1% protease inhibitors for 60 s. Then the supernatant was collected after centrifuging at 12,000× g for 10 min at 4 °C, which was the total protein solution. The concentration of protein in the total protein solution was measured by BCA kits. The protein concentration of the supernatant was diluted to 2.0 mg/mL and mixed with an equal volume of buffer (0.25 mol/L Tris-HCl buffer, pH 6.8, containing 4% SDS and 20% glycerol with 20 mmol/L 2-mercaptoethanol). The stacking gel and separating gel were made of 5% (w/v) and 10% (w/v) polyacrylamide, respectively. Electrophoresis was carried out at 80 V until the dye front reached the bottom of the stacking gel, and the gel was run at 120 V until the dye front reached the bottom of the separating gel (165-8001, Bio-Rad Mini-PROTEAN Tetra Electrophoresis System). The PVDF membrane was covered on the gel and transferred membrane at 300 mA for 30 min. The membrane was moved into a decolorization shaker with 5% skim milk (0.5% TBST) and blocked for 1 h at room temperature. […] The film was scanned and archived, processed and decolorized by Photoshop, and the optical density value of the target band was analysed by ImageJ software processing system.

[2] = tested on: ROS; test: ROS level in LPS-mediated RAW264.7 macrophages (DCFH-DA probe); settings: stimulation with LPS alone; mean ± S.D., n = 3
Description: (§2) The culture medium was collected and centrifuged at 3000× g for 10 min. Then, the inflammatory cytokines levels of TNF-α (MB-50051A), IL-1β (MB-50064B) and IL-6 (MB-50054A) in the culture medium were determined with ELISA kits (Jiangsu Enzyme marker Biotechnology Co., Ltd., Yancheng, China). […] (7) Add 50 μL of stop solution to each well, and measure its absorbance value at 450 nm wavelength. The activities of SOD, GSH-Px and the levels of ROS and Nitric oxide (NO) in macrophages were determined with spectrophotometric kits. […] The absorbance value of miscible liquid was measured at 450 nm wavelength by a multifunctional microplate reader; GSH-Px: 0.2 mL of sample was mixed with 0.2 mL GSH-Px (1 mmol/L) and performed at 37 °C for 5 min. […] The absorbance value was measured at 412 nm wavelength by a multifunctional microplate reader; ROS: DCFH-DA probe was added directly to serum-free medium: DCFH-DA was generally diluted with serum-free medium at a final concentration of 10 µM at 1:1000. […] In general, obvious green fluorescence can be observed in positive control cells after 20 min of stimulation. […] It can also be detected according to FITC fluorescence detection conditions. The results were expressed as fluorescence values.

[3] = tested on: GSH-Px; test: GSH-Px activity in LPS-mediated RAW264.7 macrophages; settings: LPS alone; mean ± S.D., n = 3
Description: as §2

[4] = tested on: SOD; test: SOD activity in LPS-mediated RAW264.7 macrophages; settings: LPS alone; mean ± S.D., n = 3
Description: as §2

[5] = tested on: NO; test: NO level in LPS-mediated RAW264.7 macrophages culture medium (spectrophotometric kit); settings: LPS group (CTRL 6.47 ± 1.29), mean ± S.D., n = 3
Description: as §2

[6] = tested on: TLR4, CD14, MD-2, MyD88, p-NF-kB/NF-kB, IKKβ; test: Western blot of TLR4, CD14, MD-2, MyD88, p-NF-kB/NF-kB, IKKβ in RAW264.7 macrophages; settings: LPS group vs CTRL group, p < 0.05
Description: as §1

## lipopolysaccharide [LPS]
[1]
  protein expression level of iNOS: higher
[2]
  levels of ROS: 61.96 ± 2.27 U/mg prot
[3]
  level of GSH-Px: 44.63 ± 2.72 U/mg prot
[4]
  level of SOD: 24.43 ± 1.41 U/mg prot
[5]
  level of NO: 28.63 ± 2.48 μM/L
[6]
  protein expression levels of TLR4, CD14, MD2, MyD88, p-NF-kB, NF-kB and IKKβ: elevated
